Assay results as given in the supplement of paper PMC13380429.

Tests used:
Caco-2 [1] = test: cell viability relative to DMSO; higher = less toxic; conditions: 72 h
HepG2 [2] = test: as above; conditions: 72 h
Calu-3 [3] = test: as above; conditions: 72 h
Vero E6 [4] = test: as above; conditions: 72 h
U2OS [5] = test: as above; conditions: 72 h
Caco-2 [6] = test: drug sensitivity score (DSS) for viability; higher = more toxic; extreme values may be limits of the assay; conditions: 72 h
HepG2 [7] = test: as above; conditions: 72 h
Calu-3 [8] = test: as above; conditions: 72 h
Vero E6 [9] = test: as above; conditions: 72 h
U2OS [10] = test: as above; conditions: 72 h
A549-ACE2 [11] = test: phospholipidosis EC50; higher = less potent phospholipidosis inducer
A549-ACE2 [12] = test: drug-induced phospholipidosis relative to tamoxifen; higher = more phospholipidosis
[13] = tested on: A549-ACE2 infected with SARS-CoV-2; test: cell count relative to DMSO; higher = less toxic; conditions: 24 h
Caco-2 [14] = test: relative viability EC50 (midpoint between 100% and the lowest measured viability); higher = less toxic; conditions: 72 h
HepG2 [15] = test: as above; conditions: 72 h
Calu-3 [16] = test: as above; conditions: 72 h
Vero E6 [17] = test: as above; conditions: 72 h
U2OS [18] = test: as above; conditions: 72 h
[19] = tested on: A549-ACE2 infected with SARS-CoV-2; test: SARS-CoV-2 infection rate relative to DMSO; higher = more infection; conditions: 24 h
[20] = tested on: A549-ACE2 infected with SARS-CoV-2; test: morphology score (similarity to uninfected cells); higher = more like uninfected cells; conditions: 24 h

Cc1cccc(/C=N/Nc2cc(N3CCOCC3)n3nc(-c4ccncc4)cc3n2)c1 [APY0201]
Conditions | SARS-CoV-2 infection rate [%] | cell count [%] | cell viability [%] | morphology score | phospholipidosis EC50 [nM]
A549-ACE2 [11], 24 h | – | – | – | – | 300
A549-ACE2 [11], 48 h | – | – | – | – | 1080
A549-ACE2 [11], 72 h | – | – | – | – | 851
Caco-2 [1], 1 nM | – | – | 95.5 | – | –
Caco-2 [1], 10 nM | – | – | 101 | – | –
Caco-2 [1], 100 nM | – | – | 92.8 | – | –
Caco-2 [1], 1000 nM | – | – | 97 | – | –
Caco-2 [1], 10000 nM | – | – | 80.1 | – | –
Calu-3 [3], 1 nM | – | – | 111 | – | –
Calu-3 [3], 10 nM | – | – | 101 | – | –
Calu-3 [3], 100 nM | – | – | 87.8 | – | –
Calu-3 [3], 1000 nM | – | – | 85.8 | – | –
Calu-3 [3], 10000 nM | – | – | 98.1 | – | –
HepG2 [2], 1 nM | – | – | 99.8 | – | –
HepG2 [2], 10 nM | – | – | 98.9 | – | –
HepG2 [2], 100 nM | – | – | 82.8 | – | –
HepG2 [2], 1000 nM | – | – | 31.3 | – | –
HepG2 [2], 10000 nM | – | – | 22.3 | – | –
U2OS [5], 1 nM | – | – | 94.2 | – | –
U2OS [5], 10 nM | – | – | 97.7 | – | –
U2OS [5], 100 nM | – | – | 93.9 | – | –
U2OS [5], 1000 nM | – | – | 91.2 | – | –
U2OS [5], 10000 nM | – | – | 77.6 | – | –
Vero E6 [4], 1 nM | – | – | 110 | – | –
Vero E6 [4], 10 nM | – | – | 104 | – | –
Vero E6 [4], 100 nM | – | – | 96.7 | – | –
Vero E6 [4], 1000 nM | – | – | 45.6 | – | –
Vero E6 [4], 10000 nM | – | – | 38.2 | – | –
[13], 0.3 µM | – | 113 | – | – | –
[13], 3 µM | – | 98 | – | – | –
[13], 10 µM | – | 94 | – | – | –
[13], 30 µM | – | 91 | – | – | –
[19], 0.3 µM | 41 | – | – | – | –
[19], 3 µM | 72 | – | – | – | –
[19], 10 µM | 72 | – | – | – | –
[19], 30 µM | 65 | – | – | – | –
[20], 0.3 µM | – | – | – | 0.21 | –
[20], 3 µM | – | – | – | -0.06 | –
[20], 10 µM | – | – | – | -0.03 | –
[20], 30 µM | – | – | – | -0.04 | –

Conditions | drug sensitivity score | relative viability EC50 [nM]
Caco-2 [6] | 1 | –
Caco-2 [14] | – | > 10000
Calu-3 [8] | 2 | –
Calu-3 [16] | – | > 10000
HepG2 [7] | 14.8 | –
HepG2 [15] | – | 240
U2OS [10] | 1.2 | –
U2OS [18] | – | > 10000
Vero E6 [9] | 10.4 | –
Vero E6 [17] | – | 392

drug-induced phospholipidosis [%], A549-ACE2 [12]
Conditions | 0.3 µM | 0.833333 µM | 3.33333 µM | 6.66667 µM | 10 µM | 30 µM
24 h | 100 | 98.4 | 102 | 100 | 85.1 | 97.8
48 h | 105 | 98.3 | 47.8 | 39.8 | – | 61.8
72 h | 141 | 95 | 33.5 | 42.7 | – | –

CCCCc1oc2ccc(NS(C)(=O)=O)cc2c1C(=O)c1ccc(OCCCN(CCCC)CCCC)cc1 [dronedarone]
Conditions | SARS-CoV-2 infection rate [%] | cell count [%] | cell viability [%] | morphology score | phospholipidosis EC50 [nM]
A549-ACE2 [11], 24 h | – | – | – | – | 926
A549-ACE2 [11], 48 h | – | – | – | – | 2180
A549-ACE2 [11], 72 h | – | – | – | – | 2340
Caco-2 [1], 1 nM | – | – | 101 | – | –
Caco-2 [1], 10 nM | – | – | 102 | – | –
Caco-2 [1], 100 nM | – | – | 94.7 | – | –
Caco-2 [1], 1000 nM | – | – | 102 | – | –
Caco-2 [1], 10000 nM | – | – | 44.6 | – | –
Calu-3 [3], 1 nM | – | – | 102 | – | –
Calu-3 [3], 10 nM | – | – | 108 | – | –
Calu-3 [3], 100 nM | – | – | 108 | – | –
Calu-3 [3], 1000 nM | – | – | 102 | – | –
Calu-3 [3], 10000 nM | – | – | 5.7 | – | –
HepG2 [2], 1 nM | – | – | 110 | – | –
HepG2 [2], 10 nM | – | – | 101 | – | –
HepG2 [2], 100 nM | – | – | 110 | – | –
HepG2 [2], 1000 nM | – | – | 99.6 | – | –
HepG2 [2], 10000 nM | – | – | 17.6 | – | –
U2OS [5], 1 nM | – | – | 100 | – | –
U2OS [5], 10 nM | – | – | 107 | – | –
U2OS [5], 100 nM | – | – | 98.1 | – | –
U2OS [5], 1000 nM | – | – | 102 | – | –
U2OS [5], 10000 nM | – | – | 23 | – | –
Vero E6 [4], 1 nM | – | – | 108 | – | –
Vero E6 [4], 10 nM | – | – | 105 | – | –
Vero E6 [4], 100 nM | – | – | 107 | – | –
Vero E6 [4], 1000 nM | – | – | 100 | – | –
Vero E6 [4], 10000 nM | – | – | 61.9 | – | –
[13], 0.1 µM | – | 103 | – | – | –
[13], 0.3 µM | – | 100 | – | – | –
[13], 1 µM | – | 111 | – | – | –
[13], 3 µM | – | 112 | – | – | –
[19], 0.1 µM | 95 | – | – | – | –
[19], 0.3 µM | 94 | – | – | – | –
[19], 1 µM | 65 | – | – | – | –
[19], 3 µM | 13 | – | – | – | –
[20], 0.1 µM | – | – | – | 0.12 | –
[20], 0.3 µM | – | – | – | 0.11 | –
[20], 1 µM | – | – | – | 0.64 | –
[20], 3 µM | – | – | – | 0.81 | –

Conditions | drug sensitivity score | relative viability EC50 [nM]
Caco-2 [6] | 2.8 | –
Caco-2 [14] | – | 3380
Calu-3 [8] | 5.1 | –
Calu-3 [16] | – | 3280
HepG2 [7] | 4.6 | –
HepG2 [15] | – | 3130
U2OS [10] | 4.1 | –
U2OS [18] | – | 3290
Vero E6 [9] | 1.8 | –

drug-induced phospholipidosis [%], A549-ACE2 [12]
Conditions | 0.3 µM | 0.833333 µM | 3.33333 µM | 6.66667 µM | 10 µM | 30 µM
24 h | 5.9 | 23.1 | 79.1 | 94.6 | 47.9 | 35
48 h | 9.08 | 19 | 96 | 120 | – | –
72 h | 7.98 | 17 | 94.1 | 122 | – | –
